Test results as given in paper PMC4505625 (Cancer cell, 2015).
One block for each molecule: values may come before it.

Columns and labels:
MHH-CALL4 cells [1] = experiment: Immunoblotting of MHH-CALL4 lysates; assay type: cell-based, human; details: 1 μM, 2 hr
[2] = system: Ba/F3-CRLF2 cells expressing JAK2 R683G or JAK2 R683G/L884P; experiment: Proliferation, L884P versus no L884P, JAK2 R683G; assay type: cell-based; details: 48 hr
[3] = system: Ba/F3-CRLF2 cells transduced with a library of JAK2 R683G; experiment: Random mutagenesis screen for resistance; assay type: cell-based; details: 3 μM inhibitor, absence of cytokines
[4] = system: Ba/F3-EpoR cells expressing JAK2 V617F or JAK2 V617F/L884P; experiment: Proliferation, L884P versus no L884P, JAK2 V617F; assay type: cell-based; details: 48 hr
CRLF2-rearranged PDXs [5] = experiment: PDX cells ex vivo, proliferation and apoptosis; assay type: cell-based, human; details: 1 μM; B-ALL-X2, -X3, -X4, -X6
MHH-CALL4 cells [6] = experiment: MHH-CALL4 cell viability; assay type: cell-based, human; details: 72 hr
[7] = system: Ba/F3-CRLF2 cells expressing JAK2 R683G/L884P; experiment: Immunoblotting of Ba/F3-CRLF2 JAK2 R683G/L884P lysates; assay type: cell-based; details: concentrations up to 200 nM, 2 hr
CRLF2-rearranged PDXs [8] = experiment: Dynamic BH3 profiling of PDX cells ex vivo; assay type: cell-based, human; details: 300 nM, 16 hr ex vivo
JAK2 = JAK2 (Homo sapiens, UniProt O60674); experiment: JAK2-driven cellular assays; assay type: cell-based
FLT3 = FLT3 (Homo sapiens, UniProt P36888); experiment: Off-target activity compared with BBT594
[9] = system: pSTAT5 in the spleen and bone marrow; experiment: rhEpo-induced pSTAT5 in murine model of polycythemia; assay type: in vivo, mice
[10] = molecular target: activated (phosphorylated) JAK2 kinase (Homo sapiens, UniProt O60674); experiment: JAK2 biochemical kinase assay
Pharmacokinetics = assay type: in vivo, mice
[11] = system: panel consisting of over 400 kinases; experiment: In vitro kinase selectivity panel; assay type: biochemical; details: 100 nM; including JAK2 and TYK2
Passive permeability = assay type: in vitro ADME
[12] = system: CRLF2-rearranged B-ALL PDXs
ABL = ABL (Homo sapiens, UniProt P00519); experiment: Cell-based kinase selectivity assay; details: follow-up of kinome panel hit
[13] = system: Ba/F3 cells expressing TEL-JAK2; experiment: Ba/F3 TEL-JAK2 growth inhibition; assay type: cell-based
VEGFR family kinases = experiment: Cell-based kinase selectivity assay
BRAF = BRAF (Homo sapiens, UniProt P15056); experiment: Cell-based kinase selectivity assay; details: follow-up of kinome panel hit
BCR-ABL = BCR-ABL (Homo sapiens, UniProt P00519+P11274); experiment: Off-target activity compared with BBT594
Metabolic stability = assay type: in vitro ADME
[14] = system: Ba/F3-CRLF2/JAK2 R683G cells; experiment: Immunoblotting of Ba/F3-CRLF2/JAK2 R683G lysates; assay type: cell-based; details: 2 hr exposure
RET [15] = molecular target: T1, RET (Homo sapiens, UniProt P07949); experiment: Cell-based kinase selectivity assay; details: follow-up of kinome panel hit
[16] = Drug concentration within the spleen, rhEpo model; assay type: in vivo, mice; details: oral 30 mg/kg/day
[17] = system: Eμ-CRLF2/Eμ-Jak2 R683G/Ts1Rhr/Pax5+/− (line 2539p) B-ALL; experiment: Transplanted transgenic murine B-ALL model; details: 14 days of treatment from day 15 after transplant
BALB/c mice = experiment: rhEpo-induced splenomegaly and reticulocytosis, four days; assay type: in vivo; details: 30 mg/kg/day, sacrificed day 5
RET [18] = molecular target: T1, RET; experiment: Off-target activity compared with BBT594
PDGFR family kinases = experiment: Cell-based kinase selectivity assay
KIT = KIT (Homo sapiens, UniProt P10721); experiment: Cell-based kinase selectivity assay
wild-type mice = experiment: Tolerability in wild-type mice; assay type: in vivo; details: 30 mg/kg/day for >6 weeks
MHH-CALL4 cells [19] = experiment: Synergy screen with B-ALL chemotherapies; assay type: cell-based, human; details: isobologram, combination index

T1 sequence (P07949 29-1114, species assumed): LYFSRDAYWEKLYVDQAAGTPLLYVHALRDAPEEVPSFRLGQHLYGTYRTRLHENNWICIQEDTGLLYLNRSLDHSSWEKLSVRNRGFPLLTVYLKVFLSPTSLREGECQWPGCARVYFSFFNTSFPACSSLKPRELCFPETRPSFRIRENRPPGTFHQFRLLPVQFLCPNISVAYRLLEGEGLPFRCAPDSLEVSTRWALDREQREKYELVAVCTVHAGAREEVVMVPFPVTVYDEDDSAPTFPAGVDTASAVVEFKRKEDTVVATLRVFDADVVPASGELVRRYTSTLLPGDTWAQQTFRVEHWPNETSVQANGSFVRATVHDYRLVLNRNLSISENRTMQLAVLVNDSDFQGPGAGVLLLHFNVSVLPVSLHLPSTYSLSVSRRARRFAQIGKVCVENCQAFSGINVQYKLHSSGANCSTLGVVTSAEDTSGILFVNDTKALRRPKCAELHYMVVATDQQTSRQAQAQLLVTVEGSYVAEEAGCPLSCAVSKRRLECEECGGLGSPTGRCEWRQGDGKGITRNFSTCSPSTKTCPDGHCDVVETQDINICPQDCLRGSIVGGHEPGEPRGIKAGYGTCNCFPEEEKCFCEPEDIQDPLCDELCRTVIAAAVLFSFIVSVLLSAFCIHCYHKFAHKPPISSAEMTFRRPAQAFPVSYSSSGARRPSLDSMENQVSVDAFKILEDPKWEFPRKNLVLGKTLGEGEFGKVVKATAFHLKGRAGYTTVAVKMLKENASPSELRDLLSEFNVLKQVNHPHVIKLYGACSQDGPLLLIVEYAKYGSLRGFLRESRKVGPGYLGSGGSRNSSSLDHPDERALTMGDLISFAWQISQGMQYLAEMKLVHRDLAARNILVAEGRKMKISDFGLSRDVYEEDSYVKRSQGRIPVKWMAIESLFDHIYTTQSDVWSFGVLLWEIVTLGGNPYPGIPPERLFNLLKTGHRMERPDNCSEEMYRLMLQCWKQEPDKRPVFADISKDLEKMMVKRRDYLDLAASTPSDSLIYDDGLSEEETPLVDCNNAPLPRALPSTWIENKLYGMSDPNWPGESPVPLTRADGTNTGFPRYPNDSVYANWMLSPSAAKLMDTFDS
activated (phosphorylated) JAK2 kinase, sequence (O60674 808-1132): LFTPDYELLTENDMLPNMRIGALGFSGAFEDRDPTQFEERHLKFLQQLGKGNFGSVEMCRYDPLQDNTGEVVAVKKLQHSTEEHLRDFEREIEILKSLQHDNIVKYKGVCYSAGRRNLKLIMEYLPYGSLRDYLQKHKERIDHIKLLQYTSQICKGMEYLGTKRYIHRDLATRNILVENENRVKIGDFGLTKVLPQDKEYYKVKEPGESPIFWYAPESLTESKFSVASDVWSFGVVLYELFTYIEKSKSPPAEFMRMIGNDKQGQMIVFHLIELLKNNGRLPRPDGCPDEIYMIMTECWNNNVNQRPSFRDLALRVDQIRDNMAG
BRAF, sequence (P15056 whole entry, species assumed): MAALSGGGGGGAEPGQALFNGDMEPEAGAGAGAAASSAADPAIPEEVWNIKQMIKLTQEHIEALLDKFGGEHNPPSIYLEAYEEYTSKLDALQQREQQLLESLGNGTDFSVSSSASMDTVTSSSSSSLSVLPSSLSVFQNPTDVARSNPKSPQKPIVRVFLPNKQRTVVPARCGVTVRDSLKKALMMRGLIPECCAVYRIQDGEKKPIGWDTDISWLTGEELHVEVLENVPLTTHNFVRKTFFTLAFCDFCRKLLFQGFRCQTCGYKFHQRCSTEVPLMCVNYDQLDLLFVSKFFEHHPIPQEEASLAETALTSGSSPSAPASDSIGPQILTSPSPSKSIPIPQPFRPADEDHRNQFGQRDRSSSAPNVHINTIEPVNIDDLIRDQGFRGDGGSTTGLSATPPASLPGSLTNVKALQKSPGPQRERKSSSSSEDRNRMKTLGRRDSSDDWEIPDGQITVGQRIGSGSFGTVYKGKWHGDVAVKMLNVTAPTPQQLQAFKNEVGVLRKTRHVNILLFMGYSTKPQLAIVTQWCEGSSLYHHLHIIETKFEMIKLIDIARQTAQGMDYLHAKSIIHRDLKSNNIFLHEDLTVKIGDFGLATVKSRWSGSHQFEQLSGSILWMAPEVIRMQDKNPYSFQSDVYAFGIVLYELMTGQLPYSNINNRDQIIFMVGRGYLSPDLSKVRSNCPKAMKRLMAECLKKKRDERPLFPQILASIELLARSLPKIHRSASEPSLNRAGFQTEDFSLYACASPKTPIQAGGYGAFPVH
KIT, sequence (P10721 26-976, species assumed): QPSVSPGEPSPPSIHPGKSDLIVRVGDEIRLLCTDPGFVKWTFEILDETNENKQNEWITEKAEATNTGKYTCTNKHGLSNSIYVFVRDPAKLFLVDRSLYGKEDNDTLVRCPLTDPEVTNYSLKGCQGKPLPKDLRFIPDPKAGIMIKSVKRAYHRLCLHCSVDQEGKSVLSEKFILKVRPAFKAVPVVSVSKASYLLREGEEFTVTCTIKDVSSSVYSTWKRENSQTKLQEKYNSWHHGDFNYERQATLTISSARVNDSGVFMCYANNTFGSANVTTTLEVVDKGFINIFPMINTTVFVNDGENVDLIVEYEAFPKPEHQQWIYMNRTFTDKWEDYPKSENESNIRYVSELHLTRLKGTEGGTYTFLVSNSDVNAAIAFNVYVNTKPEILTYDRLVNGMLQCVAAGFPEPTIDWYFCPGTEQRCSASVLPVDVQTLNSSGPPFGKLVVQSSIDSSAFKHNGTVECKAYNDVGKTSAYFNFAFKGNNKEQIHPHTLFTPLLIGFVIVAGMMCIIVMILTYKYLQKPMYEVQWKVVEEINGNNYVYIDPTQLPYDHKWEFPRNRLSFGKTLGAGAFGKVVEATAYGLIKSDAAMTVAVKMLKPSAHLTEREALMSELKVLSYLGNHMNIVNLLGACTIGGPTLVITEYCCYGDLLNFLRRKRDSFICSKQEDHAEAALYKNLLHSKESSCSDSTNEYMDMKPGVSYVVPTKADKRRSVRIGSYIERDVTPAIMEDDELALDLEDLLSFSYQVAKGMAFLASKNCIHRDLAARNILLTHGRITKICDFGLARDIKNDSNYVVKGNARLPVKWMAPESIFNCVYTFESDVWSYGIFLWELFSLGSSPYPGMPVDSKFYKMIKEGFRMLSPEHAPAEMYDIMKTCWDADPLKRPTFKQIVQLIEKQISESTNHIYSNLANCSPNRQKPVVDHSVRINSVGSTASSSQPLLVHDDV
JAK2, sequence (O60674 840-1132 limits assumed): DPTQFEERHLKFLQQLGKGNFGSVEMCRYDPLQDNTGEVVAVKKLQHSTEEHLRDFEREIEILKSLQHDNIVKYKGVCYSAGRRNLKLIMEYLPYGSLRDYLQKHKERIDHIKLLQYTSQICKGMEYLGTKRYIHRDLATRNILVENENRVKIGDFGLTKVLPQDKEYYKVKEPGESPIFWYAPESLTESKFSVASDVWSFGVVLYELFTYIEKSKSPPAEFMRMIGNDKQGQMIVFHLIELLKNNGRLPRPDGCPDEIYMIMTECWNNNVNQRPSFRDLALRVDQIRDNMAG
BCR-ABL, sequence (P00519 242-493 limits assumed, one chain of several): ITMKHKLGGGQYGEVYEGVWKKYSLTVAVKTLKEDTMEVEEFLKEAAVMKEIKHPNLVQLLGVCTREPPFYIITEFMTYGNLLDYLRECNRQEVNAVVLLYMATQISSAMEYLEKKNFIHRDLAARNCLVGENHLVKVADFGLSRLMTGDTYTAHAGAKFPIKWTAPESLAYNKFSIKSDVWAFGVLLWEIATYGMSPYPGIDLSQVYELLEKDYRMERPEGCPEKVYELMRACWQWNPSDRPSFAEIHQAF
ABL, sequence (P00519 whole entry, species assumed): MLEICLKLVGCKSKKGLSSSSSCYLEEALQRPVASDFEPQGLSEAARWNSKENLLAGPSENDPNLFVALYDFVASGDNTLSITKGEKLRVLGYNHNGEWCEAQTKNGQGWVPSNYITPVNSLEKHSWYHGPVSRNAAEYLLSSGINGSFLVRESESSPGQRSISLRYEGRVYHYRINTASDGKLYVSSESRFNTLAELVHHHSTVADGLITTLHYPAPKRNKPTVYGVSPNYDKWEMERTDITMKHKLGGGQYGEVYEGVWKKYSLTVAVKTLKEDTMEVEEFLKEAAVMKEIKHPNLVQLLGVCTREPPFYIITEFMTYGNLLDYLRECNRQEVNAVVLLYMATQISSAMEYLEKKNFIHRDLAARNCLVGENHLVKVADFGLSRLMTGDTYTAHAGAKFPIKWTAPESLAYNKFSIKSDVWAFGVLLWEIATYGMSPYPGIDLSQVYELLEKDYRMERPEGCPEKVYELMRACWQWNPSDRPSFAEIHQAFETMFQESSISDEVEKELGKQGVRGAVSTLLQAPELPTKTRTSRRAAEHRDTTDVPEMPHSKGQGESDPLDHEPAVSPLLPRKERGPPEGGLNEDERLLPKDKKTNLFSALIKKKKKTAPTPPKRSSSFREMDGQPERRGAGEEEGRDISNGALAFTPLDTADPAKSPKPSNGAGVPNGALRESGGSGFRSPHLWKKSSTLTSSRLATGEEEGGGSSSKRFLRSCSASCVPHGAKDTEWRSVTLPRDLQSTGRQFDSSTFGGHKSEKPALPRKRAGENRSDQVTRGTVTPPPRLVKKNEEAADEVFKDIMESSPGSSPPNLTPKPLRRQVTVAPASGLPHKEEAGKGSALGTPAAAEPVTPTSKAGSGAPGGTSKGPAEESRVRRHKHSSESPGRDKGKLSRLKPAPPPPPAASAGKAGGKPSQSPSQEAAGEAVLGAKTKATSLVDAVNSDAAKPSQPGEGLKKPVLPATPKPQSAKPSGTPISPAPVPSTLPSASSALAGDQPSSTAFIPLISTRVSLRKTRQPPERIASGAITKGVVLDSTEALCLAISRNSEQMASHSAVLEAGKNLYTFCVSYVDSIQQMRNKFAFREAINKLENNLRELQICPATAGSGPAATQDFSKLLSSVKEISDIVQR

Structure (SMILES): CC(=O)Nc1cc(Oc2ccc3c(nc(Nc4ccc(F)cc4F)n3C)c2C)ccn1 [CHZ868]
JAK2 activation loop phosphorylation (MHH-CALL4 cells [1]): suppressed JAK2 phosphorylation
cytochrome C release upon exposure to BIM compared to vehicle (CRLF2-rearranged PDXs [8]): significantly increased
potency in JAK2-driven cellular assays (JAK2): excellent potency
FLT3 inhibition compared with BBT594 (FLT3): significantly reduced
induction of pSTAT5 by rhEpo ([9]; oral 30 mg/kg/day, administered 2 hr prior to sampling): completely blocked
time for which rhEpo induction of pSTAT5 remained attenuated ([9]; spleen and bone marrow): 48–72 hr
IC50 fold-shift for cells expressing L884P compared to cells without L884P [2]: 4 fold
inhibitory activity in enzymatic assays ([10]; activated (phosphorylated) JAK2 kinase): modest inhibitory activity
JAK2 inhibitory activity, fold improved over BBT594 ([10]; enzymatic and cell-based assays, Figure 1B): 3–9 fold
blood t1/2 (Pharmacokinetics; mice): 1 h
blood clearance (Pharmacokinetics; mouse, in vivo): moderate
oral bioavailability (Pharmacokinetics; mouse, in vivo, po): good
number of kinases with activity [11]: 26 kinases
passive permeability (Passive permeability): high
pSTAT5 in spleens ([12]; 30 mg/kg/day, 6 days): almost complete loss
peripheral WBC counts compared to control animals ([12]; 30 mg/kg/day, 6 days): lower
splenomegaly compared to control animals ([12]; 30 mg/kg/day, 6 days): reduced splenomegaly
overall survival compared to control animals ([12]; 25 days of treatment): markedly improved
resistant clones recovered after selection [3]: none
IC50 fold-shift for cells expressing L884P compared to cells without L884P [4]: 2–3 fold
activity against ABL in the cellular setting (ABL): not corroborated
activity in Ba/F3 TEL-JAK2 cells [13]: highly active
activity against VEGFR family kinases in the cellular setting (VEGFR family kinases): low nanomolar activity
activity against BRAF in the cellular setting (BRAF): not corroborated
BCR-ABL inhibition compared with BBT594 (BCR-ABL): significantly reduced
metabolic stability (Metabolic stability): good
apoptosis ex vivo (CRLF2-rearranged PDXs [5]): induced apoptosis
proliferation ex vivo (CRLF2-rearranged PDXs [5]): consistently blocked proliferation
pJAK2 and pSTAT5 by immunoblotting [14]: completely abrogated
activity against RET in the cellular setting (RET [15]): not corroborated
IC50 (MHH-CALL4 cells [6]): ~100 nM
suppressive effects on pJAK2, pSTAT5, and c-Myc in presence of L884P [7]: abrogated
concentration within the spleen ([16]; 2 hr after dosing): 4.3 nmol/g
drug level within the spleen ([16]; 6 hr after dosing): < 1 nmol/g
overall survival compared to vehicle [17]: increased overall survival
WBC count (BALB/c mice): did not affect
increase in reticulocyte count induced by rhEpo (BALB/c mice): blocked
splenomegaly induced by rhEpo (BALB/c mice): completely blocked
RET inhibition compared with BBT594 (RET [18]): significantly reduced
activity against PDGFR family kinases in the cellular setting (PDGFR family kinases): low nanomolar activity
activity against KIT in the cellular setting (KIT): low nanomolar activity
effects on body weight, peripheral blood cell counts, bone marrow cellularity, fractions of hematopoietic progenitors (wild-type mice): no significant effects
spleen weights (wild-type mice): trends towards reduced
serum erythropoietin levels (wild-type mice; trend): elevated

Structure (SMILES): C[C@@H]1C[C@H]2[C@@H]3CCC4=CC(=O)C=C[C@]4(C)[C@@]3(F)[C@@H](O)C[C@]2(C)[C@@]1(O)C(=O)CO [dexamethasone, reference compound]
synergy with CHZ868 (MHH-CALL4 cells [19]): most notable synergy
overall survival compared to vehicle [17]: increased overall survival

Structure (SMILES): N#CC[C@H](C1CCCC1)n1cc(-c2ncnc3[nH]ccc23)cn1 [ruxolitinib]
JAK2 activation loop phosphorylation (MHH-CALL4 cells [1]): hyperphosphorylation
apoptosis ex vivo (CRLF2-rearranged PDXs [5]): little or no effect
proliferation ex vivo (CRLF2-rearranged PDXs [5]): little or no effect

Now from value to molecule, other results behind:

IC50 fold-shift for cells expressing L884P compared to cells without L884P [2]: approximately 11 fold
IC50 fold-shift for cells expressing L884P compared to cells without L884P [4]: 2–3 fold
Structure (SMILES): CC(=O)Nc1cc(Oc2ccc3c(c2)CCN3C(=O)Nc2ccc(CN3CCN(C)CC3)c(C(F)(F)F)c2)ncn1 [BBT594]
JAK2 activation loop phosphorylation (MHH-CALL4 cells [1]): suppressed JAK2 phosphorylation
resistant clones recovered after selection [3]: Over 30 clones
apoptosis ex vivo (CRLF2-rearranged PDXs [5]): induced apoptosis
proliferation ex vivo (CRLF2-rearranged PDXs [5]): consistently blocked proliferation
IC50 (MHH-CALL4 cells [6]): ~100 nM
suppressive effects on pJAK2, pSTAT5, and c-Myc in presence of L884P [7]: abrogated

IC50 fold-shift for cells expressing L884P compared to cells without L884P [2]: minimal effects
Structure (SMILES): Fc1cc(-c2cccc3ncc(-c4cnn(C5CCNCC5)c4)nc23)cc(F)c1CN1CCOCC1 [BSK805]
JAK2 activation loop phosphorylation (MHH-CALL4 cells [1]): hyperphosphorylation
IC50 (MHH-CALL4 cells [6]): > 2000 nM

IC50 fold-shift for cells expressing L884P compared to cells without L884P [2]: minimal effects
Structure (SMILES): C[C@@H]1CN(c2ccc(Nc3ncc4ccn(-c5cc(F)c(CN6CCOCC6)c(F)c5)c4n3)cc2)C[C@H](C)N1 [BVB808]
JAK2 activation loop phosphorylation (MHH-CALL4 cells [1]): hyperphosphorylation
IC50 (MHH-CALL4 cells [6]): > 2000 nM
